Measured values reported in PubChem BioAssay (NCI).
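Test compounds were applied to cells in 96-well plates for 48 hours at 5 doses. The concentration for 50% growth inhibition is given as GI50. The concentration for full growth arrest is given as TGI.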

What was measured:
Assay in all cases: NCI-60 cell line screen, 48 h
786-0 renal = system: 786-0 renal
A498 renal = system: A498 renal
A549 NSCLC = system: A549 NSCLC
ACHN renal = system: ACHN renal
BT-549 breast = system: BT-549 breast
CAKI-1 renal = system: CAKI-1 renal
CCRF-CEM leukemia = system: CCRF-CEM leukemia
COLO 205 colon = system: COLO 205 colon
DU-145 prostate = system: DU-145 prostate
EKVX NSCLC = system: EKVX NSCLC
HCC-2998 colon = system: HCC-2998 colon
HCT-116 colon = system: HCT-116 colon
HCT-15 colon = system: HCT-15 colon
HL-60(TB) leukemia = system: HL-60(TB) leukemia
HOP-62 NSCLC = system: HOP-62 NSCLC
HOP-92 NSCLC = system: HOP-92 NSCLC
HS 578T breast = system: HS 578T breast
HT29 colon = system: HT29 colon
IGROV1 ovarian = system: IGROV1 ovarian
K-562 leukemia = system: K-562 leukemia
KM12 colon = system: KM12 colon
LOX IMVI melanoma = system: LOX IMVI melanoma
M14 melanoma = system: M14 melanoma
MALME-3M melanoma = system: MALME-3M melanoma
MCF7 breast = system: MCF7 breast
MDA-MB-231 breast = system: MDA-MB-231 breast
MDA-MB-435 = system: MDA-MB-435
MDA-N = system: MDA-N
MOLT-4 leukemia = system: MOLT-4 leukemia
NCI-H226 lung = system: NCI-H226 lung
NCI-H23 lung = system: NCI-H23 lung
NCI-H460 lung = system: NCI-H460 lung
NCI-H522 lung = system: NCI-H522 lung
NCI/ADR-RES ovarian = system: NCI/ADR-RES ovarian
OVCAR-3 ovarian = system: OVCAR-3 ovarian
OVCAR-4 ovarian = system: OVCAR-4 ovarian
OVCAR-5 ovarian = system: OVCAR-5 ovarian
OVCAR-8 ovarian = system: OVCAR-8 ovarian
PC-3 prostate = system: PC-3 prostate
RPMI-8226 leukemia = system: RPMI-8226 leukemia
RXF 393 renal = system: RXF 393 renal
SF-268 CNS = system: SF-268 CNS
SF-295 CNS = system: SF-295 CNS
SF-539 CNS = system: SF-539 CNS
SK-MEL-2 melanoma = system: SK-MEL-2 melanoma
SK-MEL-28 melanoma = system: SK-MEL-28 melanoma
SK-MEL-5 melanoma = system: SK-MEL-5 melanoma
SK-OV-3 ovarian = system: SK-OV-3 ovarian
SN12C renal = system: SN12C renal
SNB-19 CNS = system: SNB-19 CNS
SNB-75 CNS = system: SNB-75 CNS
SR leukemia = system: SR leukemia
SW-620 colon = system: SW-620 colon
T-47D breast = system: T-47D breast
TK-10 renal = system: TK-10 renal
U251 CNS = system: U251 CNS
UACC-257 melanoma = system: UACC-257 melanoma
UACC-62 melanoma = system: UACC-62 melanoma
UO-31 renal = system: UO-31 renal

CC(=O)[O][Hg][c]1c(C)c(C)cc(C)c1C
GI50 (786-0 renal): 1760 nM | TGI (786-0 renal): 3280 nM | GI50 (A498 renal): 2090 nM | TGI (A498 renal): 4380 nM | GI50 (A549 NSCLC): 5550 nM | TGI (A549 NSCLC): 15000 nM | GI50 (ACHN renal): 3710 nM | TGI (ACHN renal): 8180 nM | GI50 (BT-549 breast): 1860 nM | TGI (BT-549 breast): 3790 nM | GI50 (CAKI-1 renal): 2030 nM | TGI (CAKI-1 renal): 5400 nM | GI50 (CCRF-CEM leukemia): 390 nM | TGI (CCRF-CEM leukemia): 13500 nM | GI50 (COLO 205 colon): 2490 nM | TGI (COLO 205 colon): 6470 nM | GI50 (DU-145 prostate): 1860 nM | TGI (DU-145 prostate): 4620 nM | GI50 (EKVX NSCLC): 1250 nM | TGI (EKVX NSCLC): 3110 nM | GI50 (HCC-2998 colon): 1370 nM | TGI (HCC-2998 colon): 2720 nM | GI50 (HCT-116 colon): 1850 nM | TGI (HCT-116 colon): 3660 nM | GI50 (HCT-15 colon): 1490 nM | TGI (HCT-15 colon): 3880 nM | GI50 (HL-60(TB) leukemia): 704 nM | TGI (HL-60(TB) leukemia): 2610 nM | GI50 (HOP-62 NSCLC): 2020 nM | TGI (HOP-62 NSCLC): 4050 nM | GI50 (HOP-92 NSCLC): 128 nM | TGI (HOP-92 NSCLC): 705 nM | GI50 (HS 578T breast): 708 nM | TGI (HS 578T breast): 4020 nM | GI50 (HT29 colon): 1600 nM | TGI (HT29 colon): 6310 nM | GI50 (IGROV1 ovarian): 703 nM | TGI (IGROV1 ovarian): 2370 nM | GI50 (K-562 leukemia): 743 nM | TGI (K-562 leukemia): 11000 nM | GI50 (KM12 colon): 2220 nM | TGI (KM12 colon): 6260 nM | GI50 (LOX IMVI melanoma): 1210 nM | TGI (LOX IMVI melanoma): 3060 nM | GI50 (M14 melanoma): 1360 nM | TGI (M14 melanoma): 2880 nM | GI50 (MALME-3M melanoma): 1330 nM | TGI (MALME-3M melanoma): 2750 nM | GI50 (MCF7 breast): 873 nM | TGI (MCF7 breast): 2860 nM | GI50 (MDA-MB-231 breast): 870 nM | TGI (MDA-MB-231 breast): 2330 nM | GI50 (MDA-MB-435): 1270 nM | TGI (MDA-MB-435): 2740 nM | GI50 (MDA-N): 830 nM | TGI (MDA-N): 2080 nM | GI50 (MOLT-4 leukemia): 242 nM | TGI (MOLT-4 leukemia): 4540 nM | GI50 (NCI-H226 lung): 2050 nM | TGI (NCI-H226 lung): 3870 nM | GI50 (NCI-H23 lung): 1030 nM | TGI (NCI-H23 lung): 3320 nM | GI50 (NCI-H460 lung): 739 nM | TGI (NCI-H460 lung): 3090 nM | GI50 (NCI-H522 lung): 194 nM | TGI (NCI-H522 lung): 486 nM | GI50 (NCI/ADR-RES ovarian): 2960 nM | TGI (NCI/ADR-RES ovarian): 9140 nM | GI50 (OVCAR-3 ovarian): 1360 nM | TGI (OVCAR-3 ovarian): 2710 nM | GI50 (OVCAR-4 ovarian): 566 nM | TGI (OVCAR-4 ovarian): 1370 nM | GI50 (OVCAR-5 ovarian): 1940 nM | TGI (OVCAR-5 ovarian): 3840 nM | GI50 (OVCAR-8 ovarian): 1770 nM | TGI (OVCAR-8 ovarian): 3230 nM | GI50 (PC-3 prostate): 1730 nM | TGI (PC-3 prostate): 4500 nM | GI50 (RPMI-8226 leukemia): 1600 nM | TGI (RPMI-8226 leukemia): 6110 nM | GI50 (RXF 393 renal): 482 nM | TGI (RXF 393 renal): 1240 nM | GI50 (SF-268 CNS): 825 nM | TGI (SF-268 CNS): 2250 nM | GI50 (SF-295 CNS): 1870 nM | TGI (SF-295 CNS): 4140 nM | GI50 (SF-539 CNS): 1510 nM | TGI (SF-539 CNS): 3110 nM | GI50 (SK-MEL-2 melanoma): 1530 nM | TGI (SK-MEL-2 melanoma): 3300 nM | GI50 (SK-MEL-28 melanoma): 1500 nM | TGI (SK-MEL-28 melanoma): 3020 nM | GI50 (SK-MEL-5 melanoma): 1800 nM | TGI (SK-MEL-5 melanoma): 4660 nM | GI50 (SK-OV-3 ovarian): 3630 nM | TGI (SK-OV-3 ovarian): 6960 nM | GI50 (SN12C renal): 1940 nM | TGI (SN12C renal): 4480 nM | GI50 (SNB-19 CNS): 1700 nM | TGI (SNB-19 CNS): 3760 nM | GI50 (SNB-75 CNS): 1480 nM | TGI (SNB-75 CNS): 2990 nM | GI50 (SR leukemia): 62.9 nM | TGI (SR leukemia): 2210 nM | GI50 (SW-620 colon): 732 nM | TGI (SW-620 colon): 2310 nM | GI50 (T-47D breast): 1680 nM | TGI (T-47D breast): 4790 nM | GI50 (TK-10 renal): 1860 nM | TGI (TK-10 renal): 3840 nM | GI50 (U251 CNS): 765 nM | TGI (U251 CNS): 2260 nM | GI50 (UACC-257 melanoma): 1360 nM | TGI (UACC-257 melanoma): 2730 nM | GI50 (UACC-62 melanoma): 1690 nM | TGI (UACC-62 melanoma): 4590 nM | GI50 (UO-31 renal): 1680 nM | TGI (UO-31 renal): 3250 nM

COc1ccc(/C=N/n2cnc3[nH]c(C)c(Cc4ccccc4)c3c2=N)cc1
TGI (786-0 renal): > 100000 nM | TGI (A498 renal): > 100000 nM | TGI (A549 NSCLC): > 100000 nM | TGI (ACHN renal): > 100000 nM | TGI (BT-549 breast): > 100000 nM | TGI (CAKI-1 renal): > 100000 nM | TGI (CCRF-CEM leukemia): > 100000 nM | TGI (COLO 205 colon): > 100000 nM | TGI (DU-145 prostate): > 100000 nM | TGI (EKVX NSCLC): > 100000 nM | TGI (HCC-2998 colon): > 100000 nM | TGI (HCT-116 colon): > 100000 nM | TGI (HCT-15 colon): > 100000 nM | TGI (HL-60(TB) leukemia): > 100000 nM | TGI (HOP-62 NSCLC): > 100000 nM | TGI (HOP-92 NSCLC): > 100000 nM | TGI (HS 578T breast): > 100000 nM | TGI (HT29 colon): > 100000 nM | TGI (IGROV1 ovarian): > 100000 nM | TGI (KM12 colon): > 100000 nM | TGI (M14 melanoma): > 100000 nM | TGI (MALME-3M melanoma): > 100000 nM | TGI (MCF7 breast): > 100000 nM | TGI (MDA-MB-231 breast): > 100000 nM | TGI (MDA-MB-435): > 100000 nM | TGI (MDA-N): > 100000 nM | TGI (MOLT-4 leukemia): > 100000 nM | TGI (NCI-H226 lung): > 100000 nM | TGI (NCI-H23 lung): > 100000 nM | TGI (NCI-H460 lung): > 100000 nM | TGI (NCI-H522 lung): > 100000 nM | TGI (NCI/ADR-RES ovarian): > 100000 nM | TGI (OVCAR-3 ovarian): > 100000 nM | TGI (OVCAR-4 ovarian): > 100000 nM | TGI (OVCAR-5 ovarian): > 100000 nM | TGI (OVCAR-8 ovarian): > 100000 nM | TGI (PC-3 prostate): > 100000 nM | TGI (RPMI-8226 leukemia): > 100000 nM | TGI (RXF 393 renal): 79300 nM | TGI (SF-268 CNS): > 100000 nM | TGI (SF-295 CNS): > 100000 nM | TGI (SK-MEL-2 melanoma): > 100000 nM | TGI (SK-MEL-28 melanoma): > 100000 nM | TGI (SK-MEL-5 melanoma): > 100000 nM | TGI (SK-OV-3 ovarian): > 100000 nM | TGI (SN12C renal): > 100000 nM | TGI (SNB-19 CNS): > 100000 nM | TGI (SNB-75 CNS): > 100000 nM | TGI (SR leukemia): > 100000 nM | TGI (SW-620 colon): > 100000 nM | TGI (T-47D breast): > 100000 nM | TGI (TK-10 renal): > 100000 nM | TGI (U251 CNS): > 100000 nM | TGI (UACC-257 melanoma): > 100000 nM | TGI (UACC-62 melanoma): > 100000 nM | TGI (UO-31 renal): > 100000 nM
